From ChEMBL document CHEMBL5260810, “Inhibition of bromodomain-containing protein 9 for the prevention of epigenetically-defined drug resistance” (Bioorg Med Chem Lett, 2017)

What was measured:
[1] = Cytotoxicity against human OUMS-23 cells measured after 8 days; type: functional, cell-based; details: OUMS-23, 192 h
OCI-LY19 = assay: Cytotoxicity against human OCILY19 cells measured after 8 days; type: functional, cell-based; details: OCI-LY19, 192 h
[2] = target: Bromodomain-containing protein 4 (Homo sapiens, UniProt O60885); assay: Binding affinity to human partial length BRD4 bromodomain 2 long isoform (K333 to E460 residues) expressed in bacterial expression system by BROMOscan assay
NCI-H146 = assay: Cytotoxicity against human NCI-H146 cells measured after 8 days; type: functional, cell-based; details: NCI-H146, 192 h
[3] = target: Sodium-dependent dopamine transporter (Homo sapiens) (UniProt Q01959); assay: Displacement of […] from recombinant human Dopamine transporter at 10 uM after 120 mins by scintillation counting analysis relative to control
NCI-H1651 = assay: Cytotoxicity against human NCI-H1651 cells measured after 8 days; type: functional, cell-based; details: NCI-H1651, 192 h
[4] = target: 5-hydroxytryptamine receptor 1B (Rattus norvegicus) (UniProt P28564); assay: Displacement of [125I]-CYP from rat brain 5-HT1B receptor at 10 uM after 120 mins by scintillation counting analysis relative to control
Daudi = assay: Cytotoxicity against human Daudi cells measured after 8 days; type: functional, cell-based; details: 192 h
[5] = Cytotoxicity against human ATRFLOX cells measured after 8 days; type: functional, cell-based; details: 192 h
PA-1 = assay: Cytotoxicity against human PA-1 cells measured after 8 days; type: functional, cell-based; details: PA-1, 192 h
[6] = target: T1, Bromodomain-containing protein 1 (Homo sapiens, UniProt O95696); assay: Binding affinity to human partial length BRD1 (E556 to A688 residues) expressed in bacterial expression system by BROMOscan assay
T1 sequence (O95696 whole entry): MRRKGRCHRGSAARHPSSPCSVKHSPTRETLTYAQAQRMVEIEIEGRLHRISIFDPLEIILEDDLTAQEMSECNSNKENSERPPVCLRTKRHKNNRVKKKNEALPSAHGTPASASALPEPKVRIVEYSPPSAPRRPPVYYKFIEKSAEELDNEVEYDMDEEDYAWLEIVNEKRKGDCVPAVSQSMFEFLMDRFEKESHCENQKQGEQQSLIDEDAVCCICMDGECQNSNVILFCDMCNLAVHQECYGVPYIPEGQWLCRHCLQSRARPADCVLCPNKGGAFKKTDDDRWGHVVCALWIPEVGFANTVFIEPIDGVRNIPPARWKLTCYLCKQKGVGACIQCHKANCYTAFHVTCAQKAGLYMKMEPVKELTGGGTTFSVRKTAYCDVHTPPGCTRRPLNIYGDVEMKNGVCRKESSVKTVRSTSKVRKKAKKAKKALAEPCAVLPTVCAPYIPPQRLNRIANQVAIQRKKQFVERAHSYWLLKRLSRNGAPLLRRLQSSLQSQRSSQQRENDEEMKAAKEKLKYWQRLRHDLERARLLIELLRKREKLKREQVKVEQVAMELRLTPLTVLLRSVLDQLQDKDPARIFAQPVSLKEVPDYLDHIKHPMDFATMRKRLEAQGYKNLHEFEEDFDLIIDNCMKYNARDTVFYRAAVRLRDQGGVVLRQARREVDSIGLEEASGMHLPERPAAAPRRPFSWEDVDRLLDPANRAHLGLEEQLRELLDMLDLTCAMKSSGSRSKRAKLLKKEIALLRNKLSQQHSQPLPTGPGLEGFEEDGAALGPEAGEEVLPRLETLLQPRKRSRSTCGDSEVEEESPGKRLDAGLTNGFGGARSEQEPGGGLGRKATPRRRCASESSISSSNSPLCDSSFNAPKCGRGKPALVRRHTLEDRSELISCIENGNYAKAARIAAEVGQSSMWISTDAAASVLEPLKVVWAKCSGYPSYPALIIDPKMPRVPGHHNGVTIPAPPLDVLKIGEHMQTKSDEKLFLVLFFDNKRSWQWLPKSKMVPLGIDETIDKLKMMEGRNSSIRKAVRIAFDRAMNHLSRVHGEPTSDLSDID

NCI-H358 = assay: Cytotoxicity against human NCI-H358 cells measured after 8 days; type: functional, cell-based; details: NCI-H358, 192 h
[7] = Cytotoxicity against human LS174T-HM7 cells measured after 8 days; type: functional, cell-based; details: LS174T-HM7, 192 h
[8] = target: T2, Bromodomain-containing protein 3 (Homo sapiens, UniProt Q15059); assay: Binding affinity to human partial length BRD3 bromodomain 2 (G306 to P416 residues) expressed in bacterial expression system by BROMOscan assay
[9] = target: Histone acetyltransferase p300 (Homo sapiens, UniProt Q09472); assay: Binding affinity to human partial length EP300 (A1040 to G1161 residues) expressed in bacterial expression system by BROMOscan assay
KP-4 = assay: Cytotoxicity against human KP-4 cells measured after 8 days; type: functional, cell-based; details: KP-4, 192 h
[10] = Cytotoxicity against human SW527 cells measured after 8 days; type: functional, cell-based; details: SW527, 192 h
JIMT-1 = assay: Cytotoxicity against human JIMT-1 cells measured after 8 days; type: functional, cell-based; details: JIMT-1, 192 h
NCI-H1299 = assay: Cytotoxicity against human NCI-H1299 cells measured after 8 days; type: functional, cell-based; details: NCI-H1299, 192 h
CAL-120 = assay: Cytotoxicity against human CAL-120 cells measured after 8 days; type: functional, cell-based; details: CAL-120, 192 h
[11] = target: Glycogen synthase kinase-3 beta (Homo sapiens) (UniProt P49841); assay: Inhibition of GSK3beta (unknown origin) at 1 uM relative to control
LCLC-103H cell line = assay: Cytotoxicity against human LCLC-103H cell line measured after 8 days; type: functional, cell-based; details: 192 h
[12] = Cytotoxicity against human COLO 206F cells measured after 8 days; type: functional, cell-based; details: 192 h
[13] = target: T2, Bromodomain-containing protein 3; assay: Binding affinity to human partial length BRD3 bromodomain 1 (P24 to E144 residues) expressed in bacterial expression system by BROMOscan assay
[14] = target: Adrenergic receptor alpha-2 (Rattus norvegicus) (UniProt P22086+P19328+P22909); assay: Displacement of [3H]-RX 821002 from rat alpha2 adrenoceptor at 10 uM after 60 mins by scintillation counting analysis relative to control; type: protein assay
HCT-15 = assay: Cytotoxicity against human HCT-15 cells measured after 8 days; type: functional, cell-based; details: HCT-15, 192 h
[15] = Cytotoxicity against human MOR cells measured after 8 days; type: functional, cell-based; details: 192 h
SKM-1 = assay: Cytotoxicity against human SKM-1 cells measured after 8 days; type: functional, cell-based; details: SKM-1, 192 h
[16] = target: Serine/threonine-protein kinase SIK2 (Homo sapiens) (UniProt Q9H0K1); assay: Inhibition of SIK2 (unknown origin) at 1 uM relative to control
[17] = target: Serine/threonine-protein kinase 24 (Homo sapiens) (UniProt Q9Y6E0); assay: Inhibition of MST3 (unknown origin) at 1 uM relative to control
[18] = target: 5-hydroxytryptamine receptor 4 (Homo sapiens) (UniProt Q13639); assay: Inhibition of human 5HT4e at 10 uM relative to control

Histone acetyltransferase p300, sequence (Q09472 whole entry, the tested form may be a part): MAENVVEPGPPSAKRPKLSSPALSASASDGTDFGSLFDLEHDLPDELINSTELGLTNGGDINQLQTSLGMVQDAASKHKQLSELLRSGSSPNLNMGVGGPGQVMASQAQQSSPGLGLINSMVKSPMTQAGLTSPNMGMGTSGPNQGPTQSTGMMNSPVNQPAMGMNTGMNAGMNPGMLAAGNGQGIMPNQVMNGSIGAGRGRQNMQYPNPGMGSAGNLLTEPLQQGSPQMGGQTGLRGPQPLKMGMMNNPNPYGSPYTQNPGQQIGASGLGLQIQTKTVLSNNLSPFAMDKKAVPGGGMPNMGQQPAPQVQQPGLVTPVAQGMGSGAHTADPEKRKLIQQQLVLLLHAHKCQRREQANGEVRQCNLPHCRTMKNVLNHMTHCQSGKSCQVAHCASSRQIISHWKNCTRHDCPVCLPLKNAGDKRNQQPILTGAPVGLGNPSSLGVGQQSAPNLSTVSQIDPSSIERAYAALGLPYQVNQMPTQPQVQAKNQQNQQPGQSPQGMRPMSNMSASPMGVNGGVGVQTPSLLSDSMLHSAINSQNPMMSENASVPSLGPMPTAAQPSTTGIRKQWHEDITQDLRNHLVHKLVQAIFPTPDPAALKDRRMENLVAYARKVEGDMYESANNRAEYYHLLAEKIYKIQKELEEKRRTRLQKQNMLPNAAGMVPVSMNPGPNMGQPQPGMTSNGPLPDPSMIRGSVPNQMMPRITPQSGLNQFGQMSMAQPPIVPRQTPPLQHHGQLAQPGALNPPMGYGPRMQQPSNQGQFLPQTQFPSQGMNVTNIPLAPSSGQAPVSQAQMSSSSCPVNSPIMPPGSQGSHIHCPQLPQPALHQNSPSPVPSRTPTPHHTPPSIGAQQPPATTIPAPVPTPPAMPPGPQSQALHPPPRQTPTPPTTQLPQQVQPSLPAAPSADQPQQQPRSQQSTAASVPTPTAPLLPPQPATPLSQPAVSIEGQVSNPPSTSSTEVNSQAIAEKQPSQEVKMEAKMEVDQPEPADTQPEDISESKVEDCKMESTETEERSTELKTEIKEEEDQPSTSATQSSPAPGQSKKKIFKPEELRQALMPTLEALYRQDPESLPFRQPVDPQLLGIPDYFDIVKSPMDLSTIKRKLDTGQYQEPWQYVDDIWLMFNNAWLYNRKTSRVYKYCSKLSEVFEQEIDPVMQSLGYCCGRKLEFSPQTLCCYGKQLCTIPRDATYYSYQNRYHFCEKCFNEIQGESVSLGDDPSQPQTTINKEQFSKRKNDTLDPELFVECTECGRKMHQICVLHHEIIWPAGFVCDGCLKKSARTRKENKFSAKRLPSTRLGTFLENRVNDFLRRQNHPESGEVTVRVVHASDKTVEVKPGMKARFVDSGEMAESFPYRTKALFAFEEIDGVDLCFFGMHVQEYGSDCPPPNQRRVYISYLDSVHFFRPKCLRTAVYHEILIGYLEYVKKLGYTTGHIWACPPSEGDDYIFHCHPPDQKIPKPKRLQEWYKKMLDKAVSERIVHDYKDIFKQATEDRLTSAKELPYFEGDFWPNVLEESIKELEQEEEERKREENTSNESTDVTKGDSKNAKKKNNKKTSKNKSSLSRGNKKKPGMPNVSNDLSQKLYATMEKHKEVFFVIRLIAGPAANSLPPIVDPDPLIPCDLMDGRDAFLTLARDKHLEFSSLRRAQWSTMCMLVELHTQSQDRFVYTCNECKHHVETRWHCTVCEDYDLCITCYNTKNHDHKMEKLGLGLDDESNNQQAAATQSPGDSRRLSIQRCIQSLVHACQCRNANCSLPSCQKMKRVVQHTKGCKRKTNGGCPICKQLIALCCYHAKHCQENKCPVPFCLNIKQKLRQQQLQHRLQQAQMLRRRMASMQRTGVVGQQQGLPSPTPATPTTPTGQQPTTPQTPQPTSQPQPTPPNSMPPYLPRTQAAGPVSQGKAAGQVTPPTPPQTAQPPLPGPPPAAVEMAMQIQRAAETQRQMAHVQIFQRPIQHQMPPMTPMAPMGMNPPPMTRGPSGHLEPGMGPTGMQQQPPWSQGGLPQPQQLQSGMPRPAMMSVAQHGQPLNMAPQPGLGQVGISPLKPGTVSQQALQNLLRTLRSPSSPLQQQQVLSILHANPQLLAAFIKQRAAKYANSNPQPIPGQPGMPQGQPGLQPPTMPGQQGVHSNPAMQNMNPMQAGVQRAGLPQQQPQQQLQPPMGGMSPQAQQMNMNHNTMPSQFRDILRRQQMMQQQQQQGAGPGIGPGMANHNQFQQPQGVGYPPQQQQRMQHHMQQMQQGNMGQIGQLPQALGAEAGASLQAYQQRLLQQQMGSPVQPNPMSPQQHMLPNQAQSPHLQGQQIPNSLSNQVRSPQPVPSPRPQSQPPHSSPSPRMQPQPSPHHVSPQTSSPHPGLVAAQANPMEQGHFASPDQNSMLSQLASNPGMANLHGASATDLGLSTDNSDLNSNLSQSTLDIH
Serine/threonine-protein kinase SIK2 (Homo sapiens), sequence (Q9H0K1 whole entry, looked up): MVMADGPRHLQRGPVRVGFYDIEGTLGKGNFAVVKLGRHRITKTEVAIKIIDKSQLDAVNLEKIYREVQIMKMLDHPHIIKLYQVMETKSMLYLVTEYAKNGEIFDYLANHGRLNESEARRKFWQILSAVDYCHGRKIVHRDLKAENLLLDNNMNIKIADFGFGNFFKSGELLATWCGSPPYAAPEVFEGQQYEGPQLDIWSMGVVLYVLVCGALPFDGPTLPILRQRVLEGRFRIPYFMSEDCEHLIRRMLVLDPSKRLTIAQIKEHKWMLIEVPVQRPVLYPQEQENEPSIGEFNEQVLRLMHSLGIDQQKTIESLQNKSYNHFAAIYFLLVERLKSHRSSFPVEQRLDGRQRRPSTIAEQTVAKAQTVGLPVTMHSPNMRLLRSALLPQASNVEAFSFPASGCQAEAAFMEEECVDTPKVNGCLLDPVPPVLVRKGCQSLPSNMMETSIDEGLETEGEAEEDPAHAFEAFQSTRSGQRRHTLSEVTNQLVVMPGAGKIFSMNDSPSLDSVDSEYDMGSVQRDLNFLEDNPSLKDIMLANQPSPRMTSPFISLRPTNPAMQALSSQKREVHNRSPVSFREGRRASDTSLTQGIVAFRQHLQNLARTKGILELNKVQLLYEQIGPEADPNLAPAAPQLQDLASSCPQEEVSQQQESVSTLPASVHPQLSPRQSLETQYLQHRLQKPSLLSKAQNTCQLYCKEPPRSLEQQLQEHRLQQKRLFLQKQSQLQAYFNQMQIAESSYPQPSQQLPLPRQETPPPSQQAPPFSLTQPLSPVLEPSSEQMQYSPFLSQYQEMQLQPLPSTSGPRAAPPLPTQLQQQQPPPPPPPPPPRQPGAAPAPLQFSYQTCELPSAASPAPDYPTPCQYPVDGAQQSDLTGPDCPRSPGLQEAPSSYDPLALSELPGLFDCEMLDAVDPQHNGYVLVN
5-hydroxytryptamine receptor 1B (Rattus norvegicus), sequence (P28564 whole entry): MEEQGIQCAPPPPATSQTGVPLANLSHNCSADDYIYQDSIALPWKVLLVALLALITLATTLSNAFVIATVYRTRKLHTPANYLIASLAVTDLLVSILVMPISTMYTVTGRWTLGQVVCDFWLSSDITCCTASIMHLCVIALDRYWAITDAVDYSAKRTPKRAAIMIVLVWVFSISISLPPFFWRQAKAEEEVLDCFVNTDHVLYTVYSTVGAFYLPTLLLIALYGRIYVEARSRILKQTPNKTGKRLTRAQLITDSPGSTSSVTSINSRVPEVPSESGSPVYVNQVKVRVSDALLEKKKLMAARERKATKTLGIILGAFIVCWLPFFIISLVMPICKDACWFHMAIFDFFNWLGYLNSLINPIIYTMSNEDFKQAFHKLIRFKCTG
Sodium-dependent dopamine transporter (Homo sapiens), sequence (Q01959 whole entry): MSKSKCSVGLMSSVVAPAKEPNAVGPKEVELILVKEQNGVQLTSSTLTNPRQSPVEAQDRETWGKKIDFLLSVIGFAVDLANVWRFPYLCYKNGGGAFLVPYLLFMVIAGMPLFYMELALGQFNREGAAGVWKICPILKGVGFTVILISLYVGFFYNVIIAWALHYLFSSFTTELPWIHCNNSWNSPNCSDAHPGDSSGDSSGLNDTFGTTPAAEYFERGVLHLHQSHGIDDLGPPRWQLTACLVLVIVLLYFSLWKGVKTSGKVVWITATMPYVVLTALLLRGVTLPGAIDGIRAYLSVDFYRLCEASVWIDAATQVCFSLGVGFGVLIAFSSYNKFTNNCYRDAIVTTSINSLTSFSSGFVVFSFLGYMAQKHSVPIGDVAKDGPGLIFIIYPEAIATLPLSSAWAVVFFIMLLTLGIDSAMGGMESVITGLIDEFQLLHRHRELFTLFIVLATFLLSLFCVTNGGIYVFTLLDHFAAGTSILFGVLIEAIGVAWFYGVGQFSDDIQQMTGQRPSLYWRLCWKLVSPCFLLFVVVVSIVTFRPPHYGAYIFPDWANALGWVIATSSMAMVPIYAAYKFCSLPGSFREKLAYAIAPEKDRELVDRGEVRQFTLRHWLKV
Serine/threonine-protein kinase 24 (Homo sapiens), sequence (Q9Y6E0 whole entry, looked up): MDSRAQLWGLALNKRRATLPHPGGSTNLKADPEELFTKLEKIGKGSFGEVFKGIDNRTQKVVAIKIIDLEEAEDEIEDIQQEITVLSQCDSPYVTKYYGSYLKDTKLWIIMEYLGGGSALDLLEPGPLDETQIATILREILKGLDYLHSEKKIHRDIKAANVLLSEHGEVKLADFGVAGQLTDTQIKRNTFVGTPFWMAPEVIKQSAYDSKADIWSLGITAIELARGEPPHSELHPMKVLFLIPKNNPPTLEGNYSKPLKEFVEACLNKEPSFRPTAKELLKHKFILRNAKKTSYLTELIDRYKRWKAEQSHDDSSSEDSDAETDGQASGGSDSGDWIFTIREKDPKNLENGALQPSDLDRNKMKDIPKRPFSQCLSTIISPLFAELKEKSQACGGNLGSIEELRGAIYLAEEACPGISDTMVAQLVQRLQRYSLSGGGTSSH

Row | Compound | IC50 [1] [µM] | IC50 (OCI-LY19) [µM] | Kd [2] [µM] | IC50 (NCI-H146) [µM] | Activity [3] [%] | IC50 (NCI-H1651) [µM] | Activity [4] [%] | IC50 (Daudi) [µM] | IC50 [5] [µM] | IC50 (PA-1) [µM] | Kd [6] [µM] | IC50 (NCI-H358) [µM] | IC50 [7] [µM] | Kd [8] [µM] | Kd [9] [µM] | IC50 (KP-4) [µM] | IC50 [10] [µM] | IC50 (JIMT-1) [µM] | IC50 (NCI-H1299) [µM] | Kd [13] [µM] | further results
1 | C/C=C/Cn1cc(-c2ccc(C(C)(C)O)cc2OC)c2cc[nH]c2c1=O | 20 | 14.9 | 3.7 | 20 | 15 | 20 | -15 | 3.77 | 20 | 16.4 | > 10 | 20 | 20 | 4 | 4.5 | 20 | 20 | 20 | 20 | 3.2 | IC50 (CAL-120): 20 µM; inhibition [11]: 3.5%; IC50 (LCLC-103H cell line): 20 µM; IC50 [12]: 20 µM; Activity [14]: -1%; IC50 (HCT-15): 14.6 µM; IC50 [15]: 20 µM; IC50 (SKM-1): 20 µM; inhibition [16]: 0.5%; inhibition [17]: 6%; inhibition [18]: -1%
2 | C/C=C/Cn1cc(-c2cc(OC)c(C(C)(C)O)cc2OC)c2cc(C)[nH]c2c1=O | – | – | > 10 | – | – | – | – | – | – | – | > 10 | – | – | > 10 | > 10 | – | – | – | – | 9.2 | –
3 | C/C=C/Cn1cc(-c2ccc(C(=O)N3CCOCC3)cc2)c2cc[nH]c2c1=O | 20 | 20 | 6.6 | 20 | 15 | 20 | 8 | 20 | 20 | 20 | > 10 | 20 | 20 | 4.4 | > 10 | 20 | 20 | 20 | 20 | 6.3 | IC50 (CAL-120): 20 µM; inhibition [11]: -2%; IC50 (LCLC-103H cell line): 20 µM; IC50 [12]: 20 µM; Activity [14]: -7%; IC50 (HCT-15): 20 µM; IC50 [15]: 20 µM; IC50 (SKM-1): 13.9 µM; inhibition [16]: 2.8%; inhibition [17]: -2.5%; inhibition [18]: 2%
4 | C/C=C/Cn1cc(-c2cc(OC)c(C(=O)N3CCOCC3)cc2OC)c2cc(C)[nH]c2c1=O | 2 | 2 | > 10 | 2 | 11 | 2 | -10 | 2 | 2 | 2 | > 10 | 2 | 2 | > 10 | > 10 | 2 | 2 | 2 | 2 | > 10 | IC50 (CAL-120): 2 µM; inhibition [11]: 2.5%; IC50 (LCLC-103H cell line): 2 µM; IC50 [12]: 2 µM; Activity [14]: -12%; IC50 (HCT-15): 2 µM; IC50 [15]: 2 µM; IC50 (SKM-1): 2 µM; inhibition [16]: 1.5%; inhibition [17]: 7%; inhibition [18]: -8%
